Results from patent US11820782B2, “Salt forms of amino pyrazine purine based selective kinase inhibitor” (FTG BIO LLC, priority 2018, dated 2023).
≈ marks a conversion by molar mass, not a printed value.

What was measured:
[1] = pH vs solubility study (RP-HPLC); assay type: physicochemical
Protocol: In 2 mL volume of buffers (ranging from pH 1.2 to 7.4) and purified water, compound (either free base or esylate or oxalate) was added with increments until the compound doesn't dissolve further in the medium and compound remains undissolved or excess in the solution. The samples were kept for overnight at ambient room temperature to saturate/equilibrate. The dispersions were filtered through 0.45 μm PVDF or nylon membrane filters and the filtrates were analysed using RP-HPLC for determination of solubility of compounds in various buffers and purified water.

[2] = Hygroscopicity (dynamic vapor sorption); assay type: physicochemical
Protocol: Sorption isotherms were obtained using a VTI-SA+-moisture sorption analyzer from TA instruments. The sample temperature was maintained at 25° C. by the instrument controls. The humidity was controlled by mixing the streams of dry and wet nitrogen, with a total flow rate of 200 mL/minute. The weight change of the sample as a function of % RH was constantly monitored by microbalance.
Typically, 5 to 20 mg of the sample was weighed under ambient conditions in a tared mesh stainless steel basket. The sample was loaded and unloaded at 40% RH and 25° C. A moisture sorption isotherm was performed as outlined. The standard isotherm was performed at 25° C. at 10% RH intervals over a 0 to 90% RH range. Sample was dried at 40° C. from ambient room conditions to 0% RH.

[3] = Intravenous and per oral pharmacokinetics in male Balb/c mice; assay type: in vivo; conditions: for Bioavailability (% F): PO dose (50 mg/kg) vs IV 10 mg/kg
Protocol: The husbandry conditions were maintained as described in animal facility SOPs during the study period. Animals procured were quarantined for 7 days followed by acclimatization for 5 days. The study was carried out for two days. Male Balb/c mice of age 10-12 weeks (18-25 g) and male Sprague Dawley rats 8-10 weeks (220-280 g) were used. The food was with held for a period of 4-12 hr prior to dosing and returned to all animals 4h post dosing and water supplied ad libitum. The doses of FT1518 were as follows: Mice: 10 mg/kg intravenous (i.v) and 50 mg/kg oral (p.o); rat—5 mg/kg intravenous (i.v) and 10 mg/kg oral (p.o). The formulation used in i.v and p.o studies were 10% dimethylsulfoxide (DMSO)+30% polyethyleneglycol 400 (PEG400)+60% water and 0.5% methylcellulose (MC)+0.1% tween 80. Blood was collected at the predetermined time points in mice (cardiac puncture) and Jugular vein (rats) over a period of 24h in eppendorf tubes containing K2EDTA as anticoagulant. The plasma was isolated from the blood and stored at −80° C. until bioanalysis. Species: BALB/C mice Gender: Male Dose: IV (10 mg/kg), Single dose • PO (50 mg/kg), single dose Formulation: • IV—DMSO: PEG400:Water (10:30:60 v/v) • PO— 0.5% methylcellulose and 0.1% Tween 80 in water Sampling Time Points: • IV: 5 min, 30 min, 1 h, 2, 4, 8 and 24 h post dose • PO: 10 min, 30 min, 1 h, 2, 4, 8 and 24 h post dose. PK analysis: Phoenix software (Pharsight product). Noncompartmental Analysis (NCA) was used to estimate the PK parameters. FIG. 56 depicts a pharmacokinetic profile of FT-1518 base in mice. Table 31 summarizes PK parameters used in a pharmacokinetic profile with intravenous dose in mice and Table 32 summarizes PK parameters used in a pharmacokinetic profile with per oral dose in mice.

[4] = Intravenous and per oral pharmacokinetics in male Sprague Dawley rats; assay type: in vivo, Sprague Dawley (SD) rats; conditions: for Bioavailability (% F): PO dose (10 mg/kg) vs IV 5 mg/kg
Protocol: The husbandry conditions were maintained as described in animal facility SOPs during the study period. Animals procured were quarantined for 7 days followed by acclimatization for 5 days. The study was carried out for two days. Male Balb/c mice of age 10-12 weeks (18-25 g) and male Sprague Dawley rats 8-10 weeks (220-280 g) were used. The food was with held for a period of 4-12 hr prior to dosing and returned to all animals 4h post dosing and water supplied ad libitum. The doses of FT1518 were as follows: Mice: 10 mg/kg intravenous (i.v) and 50 mg/kg oral (p.o); rat—5 mg/kg intravenous (i.v) and 10 mg/kg oral (p.o). The formulation used in i.v and p.o studies were 10% dimethylsulfoxide (DMSO)+30% polyethyleneglycol 400 (PEG400)+60% water and 0.5% methylcellulose (MC)+0.1% tween 80. Blood was collected at the predetermined time points in mice (cardiac puncture) and Jugular vein (rats) over a period of 24h in eppendorf tubes containing K2EDTA as anticoagulant. The plasma was isolated from the blood and stored at −80° C. until bioanalysis.
Intravenous and Per Oral Pharmacokinetic Profile of FT1518 (Base); FT1518-Esylate Salt and FT1518-Oxalate Salt in Male Sprague Dawley (SD) Rats Species: SD rats Gender: Male Dose: IV (5 mg/kg), Single dose • PO (10 mg/kg), single dose Formulation: • IV—DMSO: PEG400:Water (10:30:60 v/v) • PO— 0.5% methylcellulose and 0.1% Tween 80 in water Sampling Time Points: • IV: 5 min, 15 min, 30 min, 1 h, 2, 4, 8 and 24 h post dose • PO: 10 min, 15 min, 30 min, 1 h, 2, 4, 8 and 24 h post dose. PK analysis: Phoenix software (Pharsight product). Noncompartmental Analysis (NCA) was used to estimate the PK parameters

Human Plasma = assay: Plasma protein binding, human; assay type: in vitro ADME; conditions: for % Bound, Human Plasma: 10 μM (n = 4)
Protocol: All in vitro experiments like protein binding, microsomal stability, cell cytotoxicity were performed as per study protocols of respective experiments.

[5] = normal room temperature / ambient conditions
[6] = IV dose (10 mg/kg), single dose, male Balb/c mice
[7] = PO dose (50 mg/kg), single dose, male Balb/c mice, 50 mg/kg
[8] = IV dose (5 mg/kg), single dose, male SD rats
[9] = PO dose (10 mg/kg), single dose, male SD rats, 10 mg/kg
[10] = male, Balb/c, mouse, plasma, po, 50 mg/kg, PO dose (50 mg/kg), single dose, male Balb/c mice

Compound: CCC(CC)n1cnc2c(-c3cnc(N)cn3)nc(N3CC4CCC(C3)O4)nc21 [FT-1518 base]
- Solubility ([1]; Water, overnight, ambient room temperature, listed as Free base): 0.12 mg/mL (≈ 304 µM)
- Solubility ([1]; pH 1.2 HCl, listed as Free base): >50.25 mg/mL
- Solubility ([1]; pH 3.0 Citrate buffer, listed as Free base): 2.11 mg/mL (≈ 5350 µM)
- Solubility ([1]; pH 4.0 Acetate buffer, listed as Free base): 0.34 mg/mL (≈ 862 µM)
- Solubility ([1]; pH 5.0 Acetate buffer, listed as Free base): 0.14 mg/mL (≈ 355 µM)
- Solubility ([1]; pH 6.8 Phosphate buffer, listed as Free base): 0.11 mg/mL (≈ 279 µM)
- Solubility ([1]; pH 7.4 Phosphate buffer, listed as Free base): 0.1 mg/mL (≈ 253 µM)
- hygroscopicity [2, 5]: non-hygroscopic
- hygroscopicity ([2]; sorption cycle 0 to 95% RH at 25° C.): slightly hygroscopic. As there was no
- moisture uptake ([2]; up to 70% RH, 25° C.): There was about <2% moisture uptake up
- clearance as % of mouse liver blood flow ([3]; IV 10 mg/kg, mice): ~30%
- AUC0-∞ [3, 6]: 7637 ± 2021 ng·h/mL
- Cl [3, 6]: 1.4 ± 0.5 L/h/kg
- Bioavailability (% F) ([3]; male Balb/c mice): 68 % F
- AUC0-∞ [3, 7]: 25801 ± 404 ng·h/mL
- Cmax [3, 7]: 8761 ± 718 ng/mL
- Tmax [3, 7]: 12 min
- clearance as % of SD rat liver blood flow ([4]; IV 5 mg/kg, SD rats): ~42%
- AUC0-∞ [4, 8]: 3905 ± 1334 ng·h/mL
- Cl [4, 8]: 1.4 ± 0.6 L/h/kg
- Bioavailability (% F) ([4]; male SD rats): 44%
- Tmax ([4]; PO dose (10 mg/kg), single dose, male SD rats): 30 min
- AUC (AU C0^.oo) [4, 9]: 3422 ± 684 ng·h/mL
- Cmax [4, 9]: 1592 ng/mL
- plasma protein binding, human plasma (Human Plasma): ✓ FT1518, FT1518-Esylate and FT1518-Oxalate showed moderate plasma protein binding in both mouse and human plasma
- % Bound, Human Plasma (Human Plasma): 97.32%

Compound: CCC(CC)n1cnc2c(-c3cnc(N)cn3)nc(N3CC4CCC(C3)O4)nc21 [FT-1518-Esylate]
- Solubility ([1]; Water, overnight, ambient room temperature, listed as Esylate salt): >539.39 mg/mL
- Solubility ([1]; pH 1.2 HCl, listed as Esylate salt): >587.07 mg/mL
- Solubility ([1]; pH 3.0 Citrate buffer, listed as Esylate salt): >76.38 mg/mL
- Solubility ([1]; pH 4.0 Acetate buffer, listed as Esylate salt): 53.25 mg/mL
- Solubility ([1]; pH 5.0 Acetate buffer, listed as Esylate salt): 0.84 mg/mL
- Solubility ([1]; pH 6.8 Phosphate buffer, listed as Esylate salt): 79.08 mg/mL
- Solubility ([1]; pH 7.4 Phosphate buffer, listed as Esylate salt): 40.8 mg/mL
- hygroscopicity [2, 5]: non-hygroscopic
- Bioavailability (% F) ([3]; male Balb/c mice): 62 % F
- AUC(0-inf) [3, 10]: 23700 ± 9250 ng·h/mL
- half-life [3, 10]: 204 ± 72 min
- Cmax ([3]; male, Balb/c, mouse, plasma, po, 50 mg/kg, PO dose (50 mg/kg), single dose, male Balb/c mice, read-out: Cmax): 8190 ± 891 ng/mL
- Tmax ([3]; mouse, plasma, PO dose (50 mg/kg), single dose, male Balb/c mice, read-out: Tmax): 18 ± 12 min
- Bioavailability (% F) ([4]; male SD rats): > 100%
- AUC ([4]; male, Sprague Dawley, rat, plasma, po, 10 mg/kg, PO dose (10 mg/kg), single dose, male SD rats, read-out: AUC (AU C0^.oo)): 9680 ng·h/mL
- Cmax ([4]; male, Sprague Dawley, rat, plasma, po, 10 mg/kg, PO dose (10 mg/kg), single dose, male SD rats, read-out: Cmax): 1770 ng/mL
- plasma protein binding, human plasma (Human Plasma): ✓ FT1518, FT1518-Esylate and FT1518-Oxalate showed moderate plasma protein binding in both mouse and human plasma

Compound: CCC(CC)n1cnc2c(-c3cnc(N)cn3)nc(N3CC4CCC(C3)O4)nc21 [FT-1518-Oxalate]
- Solubility ([1]; Water, overnight, ambient room temperature, listed as Oxalate salt): 11.03 mg/mL
- Solubility ([1]; pH 1.2 HCl, listed as Oxalate salt): >52.76 mg/mL
- Solubility ([1]; pH 3.0 Citrate buffer, listed as Oxalate salt): 20.25 mg/mL
- Solubility ([1]; pH 4.0 Acetate buffer, listed as Oxalate salt): 1.05 mg/mL
- Solubility ([1]; pH 5.0 Acetate buffer, listed as Oxalate salt): 0.14 mg/mL
- Solubility ([1]; pH 6.8 Phosphate buffer, listed as Oxalate salt): 5.28 mg/mL
- Solubility ([1]; pH 7.4 Phosphate buffer, listed as Oxalate salt): 0.76 mg/mL
- hygroscopicity [2, 5]: non-hygroscopic
- bioavailability in comparison to esylate salt and base ([3]; PO 50 mg/kg, Balb/c male mice): FT-1518-oxalate salt showed high bioavailability in comparison to esylate salt and base.
- Bioavailability (% F) ([3]; male Balb/c mice): 76 % F
- AUC0-∞ [3, 7]: 28876 ± 7762 ng·h/mL
- Cmax [3, 7]: 8444 ± 1473 ng/mL
- T1/2 [3, 7]: 3.5 ± 1.9 h
- Tmax [3, 7]: 18 ± 12 min
- Bioavailability (% F) ([4]; male SD rats): 68%
- Cmax [4, 9]: 1980 ng/mL
- plasma protein binding, human plasma (Human Plasma): ✓ FT1518, FT1518-Esylate and FT1518-Oxalate showed moderate plasma protein binding in both mouse and human plasma
- % Bound, Human Plasma (Human Plasma): 95.54%
